Data: US12215123B2, “Cordycepin-based derivatized compound with anti-tumor effect” (NANJING TECH UNIVERSITY, priority 2022, dated 2025)
Counter-ions that a name gives are not always drawn. Like-named read-outs stand apart in the source and are kept apart here.

Columns and labels:
[1] = test system: gastric cancer cell line AGS; test: MTT proliferation, gastric cancer cell line AGS; type: cell-based; details: read-out: IC50 (μM) in gastric cancer cells, AGS
Experimental: (§1) The method for determining inhibitory activities of the compounds on the proliferation of tumor cells by an MTT method is as follows: a bottle of cells in a good state in an exponential growth phase is added with 0.25% trypsin digestive juice, the digestion makes adherent cells fall off, with 2 to 4×10^4 cells/mL, and a cell suspension is prepared. The cell suspension is inoculated on a 96-well plate, with 90 μL/well, and cultured in a constant-temperature CO2 incubator for 24 hours. The prepared compounds are added for testing, with 10 μL/well, and cultured for 72 hours. An MTT reagent is added into a 96-well plate, with 10 μL/well, and reacts in an incubator for 4 hours to absorb a supernatant, and then dimethyl sulfoxide is added, with 100 μL/well. After a crystal is dissolved, an absorbance of each well at a wavelength of 570 nm is measured by an enzyme-linked immunosorbent assay instrument, and a cell inhibition rate is calculated. An S curve is made with a compound concentration and a corresponding inhibition rate. Therefore, IC50 of a corresponding compound is obtained.
(§2) Anti-tumor dose-effect relationship curves of the cordycepin and 40 compounds prepared in gastric cancer cell lines AGS and BGC-823 were analyzed by an MTT experimental method.

[2] = test system: gastric cancer cell line BGC-823; test: MTT proliferation, gastric cancer cell line BGC-823; type: cell-based; details: read-out: IC50 (μM) in gastric cancer cells, BGC-823
Experimental: as §1, §2

[3] = test system: wild-type AB-line zebrafish; details: 3 dpf to 5 dpf, 35° C.; survival rate>90% and teratogenicity<20%
Experimental: The zebrafish model is a wild-type AB-line zebrafish from College of Biotechnology and Pharmaceutical Engineering, Nanjing Tech University, and is carried out by a natural mating reproduction method, with 30 zebrafish of 2 dpf in each experimental group. The zebrafish is fed in fish culture water at 28° C. (water quality:200 mg of instant sea salt and CaCO3 are added into 1 L of reverse osmosis water with a conductivity of 480 uS/cm to 510 uS/cm, a pH value of 6.9 to 7.2, and a hardness of 53.7 mg/L to 71.6 mg/L), and the feeding management meets the requirements of international AAALAC certification.
240 3 dpf wild-type AB-line zebrafish were randomly selected in an 8-well plate, with 30 zebrafish in each well, and 3 mL of fish culture water in each well, the cordycepin was diluted according to a maximum lethal dose, dissolved in DMSO, and added into each well according to a concentration gradient (the maximum lethal dose was diluted by 100 times, in which 8 concentration gradient values were taken for the experiment), and meanwhile, a normal control group, a solvent control group G (5% glucose) and a solvent control group D (DMSO) were set. During the experiment, the zebrafish in each group were cultured at 35° C., after the zebrafish were treated to be 5 dpf with a sample to be tested, lethal and developmental malformation conditions of the zebrafish in different doses were investigated respectively, and a maximum tolerance dose (MTD) of the sample to be tested to normal zebrafish was determined under a concentration when survival rate>90% and teratogenicity<20%.

[4] = test system: small cell lung cancer cell line H1048; test: MTT proliferation, small cell lung cancer cell line H1048; type: cell-based; details: MTT, 72 hours, H1048, read-out: IC50 (μM) of compounds in small cell lung cancer cells, H1048
Experimental: as §1
(§3) Anti-tumor dose-effect relationship curves of cordycepin and compounds 1, 2, 4, 5, 7, 8, 10, 12, 16, 18, 21, 23, 24, 35 and 38 in small cell lung cancer cell lines H1048, H446 and H69 were analyzed by an MTT experimental method.

[5] = test system: small cell lung cancer cell line H69; test: MTT proliferation, small cell lung cancer cell line H69; type: cell-based; details: MTT, 72 hours, H69; read-out: IC50 (μM) of compounds in small cell lung cancer cells, H69
Experimental: as §1, §3

[6] = test system: small cell lung cancer cell line H446; test: MTT proliferation, small cell lung cancer cell line H446; type: cell-based; details: MTT; for IC50: 72 hours, H446, read-out: IC50 (μM) of compounds in small cell lung cancer cells, H446
Experimental: as §1, §3

[7] = Homo sapiens, MTT, 72 hours, BGC-823

| IC50 ([1]; MTT, 72 hours, AGS) [µM] | IC50 [2, 7] [µM] | Molecule | IC50 [5] [µM] | IC50 ([2]; MTT, 72 hours, BGC-823) [µM] | further results |
| --- | --- | --- | --- | --- | --- |
| – | – | CC(C)OC(=O)C(C)NP(=O)(COC[C@@H]1CC(O)[C@H](n2cnc3c(N)nc(F)nc32)O1)Oc1ccccc1 (stereo partly shown) [Compound 20, isopropyl((((5-(6-amino-2-fluoro-9H-purin-9-yl)-4-hydroxytetrahydrofuran-2-yl)methoxy)methyl)(phenoxy)phosphoryl)alanine ester] | – | – | IC50 ([1]; 72 h): 0.94 µM; IC50 ([2]; Homo sapiens, BGC-823, 72 h): 1.37 µM; Maximum tolerance dose (MTD) in zebrafish model [3]: 0.12 µM |
| 1.32 | 2.39 | CC(C)(C)C(=O)OCOP(=O)(COC[C@@H]1CC(O)[C@H](n2cnc3c(N)nc(F)nc32)O1)OCOC(=O)C(C)(C)C (stereo partly shown) [Compound 17] | – | – | – |
| 12.9 | 18.6 | Nc1nc(S)nc2c1ncn2[C@@H]1O[C@H](COP(=O)(O)O)CC1O (stereo partly shown) [Compound 14, (5-(6-amino-2-mercapto-9H-purine-9-yl)-4-hydroxytetrahydrofuran-2-yl)dihydromethyl phosphate] | – | – | – |
| 57.4 | 46.6 | CC(C)(C)C(=O)OCOP(=O)(COC[C@H]1O[C@@H](n2cnc3c(N)ncnc32)C(O)[C@H]1N=[N+]=[N-])OCOC(=O)C(C)(C)C (stereo partly shown) [Compound 26, (((((5-(6-amino-9H-purine-9-yl)-3-azide-4-hydroxytetrahydrofuran-2-yl)methoxy)methyl)phosphoryl)bis(oxy))bis(methylene)bis(2,2-dimethylpropionic acid)] | – | – | – |
| 1.23 | 1.34 | O=C(Nc1ncnc2c1ncn2[C@@H]1O[C@H](CO)CC1O)c1ccncc1 (stereo partly shown) [Compound 12] | 19.5 | – | IC50 ([4]; Homo sapiens, NCI-H1048, 72 h): 22.2 µM; IC50 ([6]; Homo sapiens, NCI-H446, 72 h): 18.1 µM |
| 32.5 | 41.4 | CC(C)C(N)C(=O)OC1C[C@@H](CO)O[C@H]1n1cnc2c(N)ncnc21 (stereo partly shown) [Compound 29, 2-(6-amino-9H-purin-9-yl)-5-(hydroxymethyl)tetrahydrofuran-3-yl valine salt] | – | – | – |
| 86.7 | 61.4 | Nc1ncnc2c1ncn2[C@@H]1O[C@H](COCP(=O)(O)O)CC1O (stereo partly shown) [Compound 3] | – | – | – |
| 18.4 | 20.7 | Nc1ncnc2c1ncn2[C@@H]1O[C@H](COP(=O)(O)O)[C@H](F)C1O (stereo partly shown) [Compound 15, (5-(6-amino-9H-purine-9-yl)-3-fluoro-4-hydroxytetrahydrofuran-2-yl)dihydromethyl phosphate] | – | – | – |
| 134 | 104 | Nc1nc(/C=C/Br)nc2c1ncn2[C@@H]1O[C@H](COP(=O)(O)O)CC1O (stereo partly shown) [Compound 38, (5-(6-amino-2-((E)-2-bromocarbonyl)-9H-purine-9-yl)-4-hydroxytetrahydrofuran-2-yl)dihydromethyl phosphate] | 1.25 | – | IC50 ([4]; Homo sapiens, NCI-H1048, 72 h): 1.37 µM; IC50 ([6]; Homo sapiens, NCI-H446, 72 h): 0.97 µM; killing effect on the three lines of cells in vitro ([6]; stated in words for all three lines H1048, H446 and H69): strong killing effect |
| 164 | 189 | Nc1ncnc2c1ncn2C1OC(COC2CC(CO)C(O)C2O)CC1O (stereo not shown) [Compound 40, 3-((5-(6-amino-9H-purin-9-yl)-4-hydroxytetrahydrofuran-2-yl)methoxy)-5-(hydroxymethyl)cyclopentane-1,2-diol] | – | – | – |
| 64.3 | 86.2 | CC(C)COP(=O)(OCC(C)C)OC[C@@H]1CC(O)[C@H](n2cnc3c(N)ncnc32)O1 (stereo partly shown) [Compound 4, (5-(6-amino-9H-purine-9-yl)-4-hydroxytetrahydrofuran-2-yl)diisobutyl methylphosphate] | 43.2 | – | IC50 ([4]; Homo sapiens, NCI-H1048, 72 h): 42.1 µM; IC50 ([6]; Homo sapiens, NCI-H446, 72 h): 54.3 µM |
| 75.4 | 64.2 | CC(C)C(N)C(=O)OC1C[C@@H](COP(=O)(O)O)O[C@H]1n1cnc2c(N)ncnc21 (stereo partly shown) [Compound 30, 2-(6-amino-9H-purin-9-yl)-5-(phosphonoxy)methyl)tetrahydrofuran-3-yl valine salt] | – | – | – |
| 41.2 | 33.6 | CC(C)C(N)C(=O)OC1C[C@@H](COP(=O)(O)O)O[C@H]1n1cnc2c(NC(=O)c3ccncc3)ncnc21 (stereo partly shown) [Compound 31, 2-(6-(isonicotinamide)-9H-purin-9-yl)-5-(phosphonyl)methyl)tetrahydrofuran-3-yl valine salt] | – | – | – |
| 0.89 | 1.31 | CC(C)(C)C(=O)OCOP(=O)(COC[C@@H]1CC(O)[C@H](n2cnc3c(NC(=O)c4ccncc4)ncnc32)O1)OCOC(=O)C(C)(C)C (stereo partly shown) [Compound 23] | 20.2 | – | IC50 ([4]; Homo sapiens, NCI-H1048, 72 h): 17.4 µM; IC50 ([6]; Homo sapiens, NCI-H446, 72 h): 16.4 µM |

| Molecule | IC50 ([1]; MTT, 72 hours, AGS) [µM] | IC50 [2, 7] [µM] | IC50 [5] [µM] | IC50 ([2]; MTT, 72 hours, BGC-823) [µM] | further results |
| --- | --- | --- | --- | --- | --- |
| NC1=CS(=O)(=O)OC12C[C@@H](COP(=O)(O)O)O[C@H]2n1cnc2c(N)ncnc21 (stereo partly shown) [Compound 9, (4-amino-6-(6-amino-9H-purin-9-yl)-2,2-dioxide-1,7-dioxane-2-thiaspiro[4.4]non-3-ene-8-yl)dihydromethyl phosphate] | 0.46 | 1.24 | – | – | Maximum tolerance dose (MTD) in zebrafish model [3]: 14 µM |
| CC(C)[C@H](N)C(=O)OCC(CO)OCC1CC(O)C(n2cnc3c(N)ncnc32)O1 (stereo partly shown) [Compound 8, 2-(-5-(6-amino-9H-purin-9-yl)-4-hydroxytetrahydrofuran-2-yl)methoxy)-3-hydroxypropyl valine salt] | 27.8 | – | 14.8 | 18.8 | IC50 [4]: 14.5 µM; IC50 [6]: 10.5 µM |
| COC(=O)C(C)NP(=O)(Oc1ccccc1)OC1C[C@@H](CO)O[C@H]1n1cnc2c(N)ncnc21 (stereo partly shown) [Compound 33, methyl(((2-(6-amino-9H-purin-9-yl)-5-(hydroxymethyl)tetrahydrofuran-3-yl)oxy)(phenoxy)phosphoryl)alanine salt] | 36.5 | – | – | 29.5 | – |
| N-(2-fluoro-3-hydroxy-5-(hydroxymethyl)tetrahydrofuran-2-yl)-9H-purine-6-yl)octadecylamine [Compound 21] | 2.46 | – | 2.95 | 4.38 | IC50 [4]: 6.38 µM; IC50 [6]: 4.58 µM |
| Nc1ncnc2c1ncn2[C@@H]1O[C@H](COCCO)CC1O (stereo partly shown) [Compound 1] | 81.7 | – | 20.6 | 64.4 | IC50 [4]: 27.4 µM; IC50 [6]: 23.8 µM |
| N-(3-hydroxy-5-(hydroxymethyl)tetrahydrofuran-2-yl)-9H-purine-6-yl)octadecylamine [Compound 10] | 136 | – | 9.48 | 82.4 | IC50 [4]: 10.4 µM; IC50 [6]: 12.1 µM |
| N-(4-chloro-3-hydroxy-5-(hydroxymethyl)tetrahydrofuran-2-yl)-9H-purine-6-yl)octadecylamine [Compound 22] | 45 | – | – | 53.7 | – |
| CCCCCOC1CC(COCP(=O)(O)O)OC1n1cnc2c(NC(=O)c3ccncc3)ncnc21 (stereo not shown) [Compound 32, (((5-(6-(isonicotinamide)-9H-purine-9-yl)-4-(pentoxy)tetrahydrofuran-2-yl)methoxy)methyl)phosphonic acid] | 23 | – | – | 19.8 | – |
| isopropyl((((3-azide-4-hydroxy-5-(6-(isoniazid)-9H-purin-9-yl)tetrahydrofuran-2-yl)methoxy)methyl)(phenoxy)phosphoryl)alanine ester [Compound 28] | 3.47 | – | – | 5.42 | – |
